In ChEMBL document CHEMBL3217681, “Phosphofructokinase: structural and functional aspects and design of selective inhibitors” (Medchemcomm, 2012):

Target: T1, ATP-dependent 6-phosphofructokinase (Trypanosoma brucei, UniProt O15648)
T1 sequence (O15648 whole entry): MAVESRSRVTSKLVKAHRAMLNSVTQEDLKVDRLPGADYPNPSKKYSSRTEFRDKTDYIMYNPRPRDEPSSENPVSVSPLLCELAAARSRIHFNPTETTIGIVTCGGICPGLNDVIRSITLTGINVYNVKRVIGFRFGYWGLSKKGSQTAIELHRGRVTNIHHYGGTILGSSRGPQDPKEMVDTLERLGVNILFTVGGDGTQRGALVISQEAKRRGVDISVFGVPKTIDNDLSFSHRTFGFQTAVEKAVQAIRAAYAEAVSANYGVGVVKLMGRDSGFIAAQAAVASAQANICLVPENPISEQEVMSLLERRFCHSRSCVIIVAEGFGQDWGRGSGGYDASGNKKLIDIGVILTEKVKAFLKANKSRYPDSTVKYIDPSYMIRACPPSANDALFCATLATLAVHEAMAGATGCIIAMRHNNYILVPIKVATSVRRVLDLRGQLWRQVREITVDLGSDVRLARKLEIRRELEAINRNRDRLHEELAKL
Test: Inhibition of Trypanosoma brucei phosphofructokinase

IC50	Structure (SMILES)
900 µM	OC[C@H]1O[C@H](CNc2ccc3ccccc3c2)[C@@H](O)[C@@H]1O
410 µM	OC[C@H]1O[C@H](CNc2ccc(Cl)c(Cl)c2)[C@@H](O)[C@@H]1O
